Patent US11142548B2, “Agents that activate CD47 and their use in the treatment of inflammation” (SORBONNE UNIVERSITE, priority 2016, dated 2021)

Experiments:
[1] = test system: recruited monocyte-derived inflammatory macrophages (recMφ); assay: Thioglycollate-induced peritonitis; format: in vivo, mouse; conditions: single intra-peritoneal injection at day 1, observed at day 2
Experimental: Mouse peritoneal exudate cells (PECs) were elicited by i.p. injection of 0,5 ml 3% thioglycollate (T9032, Sigma) into 10 weeks old male C57BL/6J and Cd47^−/− mice. After 1 day, PECs were isolated by flushing of the peritoneum with ice-cold PBS, Mφs were negatively selected by magnetic sorting following the manufacturers protocol (EasySep Mouse Monocyte Enrichment Kit, Stemcell Technologies), resuspended in X-VIVO 15 medium (Lonza), and plated in Lab-Tek® Chamber Slide™ (Nunc®).
To test whether CD47 influences inflammation resolution in other pathological contexts, a model of acute thioglycollate-induced peritonitis was used, characterized by an early accumulation of neutrophils, followed by recruited monocyte-derived inflammatory macrophages (recMφ), both experiencing an apoptosis-driven elimination at different kinetics (Gautier et al., Blood. 2013, 122:2714-2722).

microglial cells = assay: Subretinal adoptive transfer and clearance of CFSE-labeled microglial cells; format: in vivo, mouse; conditions: 24 h after subretinal transfer into wildtype mice, co-injected TSP1 10 μg/ml
Experimental: Microglial cells were prepared from PBS-perfused mice. After dissociation of brain or retina with Neural Dissociation Kit Papain (miltenyi Biotech), 70 μm filtered cell suspensions were washed and resuspended in 75% isotonic Percoll (Percoll Plus, GE Healthcare), overlayed with 25% Percoll and PBS. Cells were centrifuged at 1000 g for 30 min at […]. The ring at the 75%/25% interface was collected, washed with PBS and centrifuged.
According to Levy et al., (EMBO Mol Med. 2015, 7:211-226), brain microglia of the indicated mouse strains were sorted as describe above, labeled in 10 μM CFSE (Life Technologies), washed and resuspended in PBS, 12000 cells (4 μL) were injected using glass microcapillaries (Eppendorf) and a microinjector in the subretinal space of anesthetized 10-14 weeks old wildtype mice. A hole was pierced with the glass capillary prior to the subretinal injection to avoid intra-ocular pressure increase and to allow retinal detachment with 4 μL of solution. The subretinal injection was verified by fundoscopy. In specific experiments, cells were co-injected with recombinant human TSP1 (10 μg/ml, R&D Systems), Eyes were enucleated after 24 hours, fixed in PFA 4% 30 minutes and labeled with DAPI. Eyes with hemorrhages were discarded. CFSE+cells in the subretinal space were quantified on flatmounts on the RPE side of the retina and on the apical side of the RPE.

HTRA1 [2] = target: T1, HTRA1 (Homo sapiens, UniProt Q92743); assay: Co-incubation of recombinant TSP1 or TSP2 with recombinant HTRA1 (Coomassie staining, Western blot); format: biochemical; conditions: co-incubation at 37° C. for 24 h, Coomassie gel
T1 construct: purchased R & D
T1 sequence (Q92743 23-480): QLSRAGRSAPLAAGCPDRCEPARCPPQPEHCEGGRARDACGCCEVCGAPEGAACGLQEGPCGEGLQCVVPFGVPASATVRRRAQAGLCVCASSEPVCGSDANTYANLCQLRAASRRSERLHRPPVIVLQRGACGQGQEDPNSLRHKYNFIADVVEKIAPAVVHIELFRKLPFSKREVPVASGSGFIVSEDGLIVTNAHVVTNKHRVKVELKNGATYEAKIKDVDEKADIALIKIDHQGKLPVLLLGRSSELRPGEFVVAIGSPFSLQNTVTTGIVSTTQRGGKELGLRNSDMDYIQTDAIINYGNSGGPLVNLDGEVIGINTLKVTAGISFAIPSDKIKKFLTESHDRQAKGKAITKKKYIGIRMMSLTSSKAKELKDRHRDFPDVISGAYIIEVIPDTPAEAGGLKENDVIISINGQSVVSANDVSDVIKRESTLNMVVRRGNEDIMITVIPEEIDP
Experimental: WB analysis was performed using a monoclonal anti-TSP1 antibody (Abeam), as previously described (Houssier et al., PLoS Med. 2008, 5:e39). RT-PCRs primers were ordered from Taqman, reference: Hs01016151_m1.
Western blot analysis of the proteins confirmed the disappearance of the whole sized TSP1 and the appearance of several smaller bands in the co-incubated condition (FIG. 3A). […] Next the functionality of rTSP1 and HTRA1-digested TSP1 was analyzed in laser-induced subretinal inflammation in vivo. […] Accordingly, associated choroidal neovascularization, measured as the surface covered by CD102^−CNV on choroidal flatmounts at d7, underwent the same differences (FIG. 3D).

HTRA1 [3] = target: T1, HTRA1; assay: HTRA1 cleavage sites of TSP1 by LC-MS/MS; format: biochemical; conditions: post-digestion fragments
Experimental: Proteins were submitted to reduction by incubation with 5 mM dithiotreitol in 50 mM ammonium bicarbonate (AmBic) for 30 min at 37° C., then alkylation with 15 mM iodoacetamide in 50 mM AmBic for 30 min, RT. Tryptic digestion was performed with a protein/enzyme ratio of 25/1 at 37° C. overnight in 50 mM AmBic.
Peptide mixtures were supplemented with formic acid to a final concentration of 0.1% and analyzed on a U3000 nanoLC (Thermo) coupled to an HCTultra ion trap (Bruker). Peptides were concentrated and desalted for 5 min on a precolumm RP-C18 (5 mm, 300 μm i.d., 100 Å, Thermo) with a mobile phase A (2% ACN/0.1% formic acid) at a flow rate of 20 μL/min then separated on an analytical column RP-C18 (15 cm, 75 μm i.d., 100 Å, Dionex) at a flow rate of 300 nL/min. Elution gradient was run from 2% to 10% of solvent B (95% ACN/0.1% formic acid) in 10 min then 10% to 35% B in 60 min and 35% to 50% B in 10 min. The ion trap was used in the positive mode with the selection of 8 precursors from each MS spectrum for fragmentation by collision induced dissociation (CID). […]
Tryptic peptides were also analyzed by MALDI-TOF MS on an Autoflex speed (Bruker) in positive reflectron mode in the mass range 700-4000 m/z using α-Cyano-4-hydroxycinnamic acid as the matrix (0.9 mg/mL CHCA in 85% CAN, 0.1% TFA, 10 mM ammonium phosphate). […]

CD47 = CD47 (Homo sapiens, UniProt Q08722); conditions: comparison in words, no test described; cited from earlier work
Chain of CD47 (Q08722 19-323, species assumed): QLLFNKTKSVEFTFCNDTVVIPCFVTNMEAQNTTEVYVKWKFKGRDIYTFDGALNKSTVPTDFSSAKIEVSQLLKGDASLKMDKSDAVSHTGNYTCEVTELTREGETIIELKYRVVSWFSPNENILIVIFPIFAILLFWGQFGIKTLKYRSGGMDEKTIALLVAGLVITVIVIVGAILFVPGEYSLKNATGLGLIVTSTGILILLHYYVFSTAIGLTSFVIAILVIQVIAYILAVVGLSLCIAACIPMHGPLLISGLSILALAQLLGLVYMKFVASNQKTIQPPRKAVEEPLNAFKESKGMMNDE

## recombinant TSP1: recombinant human TSP1 (R&D Systems), natural ligand and agonist of CD47
[1]
  elimination of recMφs: significantly accelerated the elimination
Microglial cells; CFSE+ Cd47-/- microglial cells
  elimination of Cd47-/- microglial cells: no effect
Microglial cells; CFSE+ Tsp1-/- microglial cells
  elimination of Tsp1-/- microglial cells: reversed the phenotype
Microglial cells; CFSE+ wildtype microglial cells
  elimination of wildtype microglial cells: very significantly accelerated the elimination
HTRA1 [2]
  degradation by recombinant HTRA1: degrades
HTRA1 [3]
  distinct sites proteolyzed by HTRA1: 5 sites
CD47
  half maximal effective concentration (EC50) relative to CD47-activating peptides or TSP2: much lower
